Experimental data: PubChem BioAssay (NCI)
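Test compounds were applied to cells in 96-well plates for 48 hours at 5 doses. GI50 marks 50% less growth. TGI: concentration producing complete growth inhibition.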

Legend:
Assay in all cases: DTP human tumour cell line panel, 48 h
IGROV1 ovarian = test system: IGROV1 ovarian
UO-31 renal = test system: UO-31 renal
M14 melanoma = test system: M14 melanoma
MDA-MB-231 breast = test system: MDA-MB-231 breast
HS 578T breast = test system: HS 578T breast
OVCAR-3 ovarian = test system: OVCAR-3 ovarian
LOX IMVI melanoma = test system: LOX IMVI melanoma
SK-OV-3 ovarian = test system: SK-OV-3 ovarian
HCT-116 colon = test system: HCT-116 colon
ACHN renal = test system: ACHN renal
786-0 renal = test system: 786-0 renal
RPMI-8226 leukemia = test system: RPMI-8226 leukemia
OVCAR-4 ovarian = test system: OVCAR-4 ovarian
SK-MEL-5 melanoma = test system: SK-MEL-5 melanoma
RXF 393 renal = test system: RXF 393 renal
SW-620 colon = test system: SW-620 colon
UACC-257 melanoma = test system: UACC-257 melanoma
SK-MEL-2 melanoma = test system: SK-MEL-2 melanoma
SF-268 CNS = test system: SF-268 CNS
OVCAR-5 ovarian = test system: OVCAR-5 ovarian
MOLT-4 leukemia = test system: MOLT-4 leukemia
T-47D breast = test system: T-47D breast
EKVX NSCLC = test system: EKVX NSCLC
A498 renal = test system: A498 renal
HL-60(TB) leukemia = test system: HL-60(TB) leukemia
SN12C renal = test system: SN12C renal
SF-295 CNS = test system: SF-295 CNS
DU-145 prostate = test system: DU-145 prostate
SR leukemia = test system: SR leukemia
K-562 leukemia = test system: K-562 leukemia
TK-10 renal = test system: TK-10 renal
NCI/ADR-RES ovarian = test system: NCI/ADR-RES ovarian
PC-3 prostate = test system: PC-3 prostate
BT-549 breast = test system: BT-549 breast
HOP-62 NSCLC = test system: HOP-62 NSCLC
SF-539 CNS = test system: SF-539 CNS
NCI-H23 lung = test system: NCI-H23 lung
UACC-62 melanoma = test system: UACC-62 melanoma
NCI-H226 lung = test system: NCI-H226 lung
OVCAR-8 ovarian = test system: OVCAR-8 ovarian
COLO 205 colon = test system: COLO 205 colon
SNB-75 CNS = test system: SNB-75 CNS
MDA-MB-468 breast = test system: MDA-MB-468 breast
MCF7 breast = test system: MCF7 breast
CCRF-CEM leukemia = test system: CCRF-CEM leukemia
HOP-92 NSCLC = test system: HOP-92 NSCLC
NCI-H460 lung = test system: NCI-H460 lung
MALME-3M melanoma = test system: MALME-3M melanoma
HCC-2998 colon = test system: HCC-2998 colon
CAKI-1 renal = test system: CAKI-1 renal
MDA-MB-435 = test system: MDA-MB-435
SK-MEL-28 melanoma = test system: SK-MEL-28 melanoma
KM12 colon = test system: KM12 colon
U251 CNS = test system: U251 CNS
SNB-19 CNS = test system: SNB-19 CNS
A549 NSCLC = test system: A549 NSCLC
NCI-H522 lung = test system: NCI-H522 lung
HT29 colon = test system: HT29 colon
HCT-15 colon = test system: HCT-15 colon

CC(Nc1ncnc2ccc(-c3ccc4oc(N)nc4c3)cc12)c1ccccc1 (stereo not drawn)
GI50 (IGROV1 ovarian): 1.45 µM | TGI (IGROV1 ovarian): 3.75 µM | GI50 (UO-31 renal): 1.37 µM | TGI (UO-31 renal): 4.16 µM | GI50 (M14 melanoma): 4.97 µM | TGI (M14 melanoma): 42.4 µM | GI50 (MDA-MB-231 breast): 2.59 µM | TGI (MDA-MB-231 breast): 6.92 µM | GI50 (HS 578T breast): 2.04 µM | TGI (HS 578T breast): 5.86 µM | GI50 (OVCAR-3 ovarian): 1.67 µM | TGI (OVCAR-3 ovarian): 3.35 µM | GI50 (LOX IMVI melanoma): 1.62 µM | TGI (LOX IMVI melanoma): 3 µM | GI50 (SK-OV-3 ovarian): 2.65 µM | TGI (SK-OV-3 ovarian): 8.56 µM | GI50 (HCT-116 colon): 2.06 µM | TGI (HCT-116 colon): 4.78 µM | GI50 (ACHN renal): 1.84 µM | TGI (ACHN renal): 4.92 µM | GI50 (786-0 renal): 2.19 µM | TGI (786-0 renal): 8.59 µM | GI50 (RPMI-8226 leukemia): 2.47 µM | TGI (RPMI-8226 leukemia): 13.3 µM | GI50 (OVCAR-4 ovarian): 2.14 µM | TGI (OVCAR-4 ovarian): 5.16 µM | GI50 (SK-MEL-5 melanoma): 2.15 µM | TGI (SK-MEL-5 melanoma): 5.88 µM | GI50 (RXF 393 renal): 1.98 µM | TGI (RXF 393 renal): 5.87 µM | GI50 (SW-620 colon): 4.42 µM | TGI (SW-620 colon): 18.9 µM | GI50 (UACC-257 melanoma): 5.23 µM | TGI (UACC-257 melanoma): 39.5 µM | GI50 (SK-MEL-2 melanoma): 19.5 µM | TGI (SK-MEL-2 melanoma): 41.7 µM | GI50 (SF-268 CNS): 3.91 µM | TGI (SF-268 CNS): 54.7 µM | GI50 (OVCAR-5 ovarian): 3.49 µM | TGI (OVCAR-5 ovarian): 18.7 µM | GI50 (MOLT-4 leukemia): 2.67 µM | TGI (MOLT-4 leukemia): 10.4 µM | GI50 (T-47D breast): 4.06 µM | TGI (T-47D breast): 26 µM | GI50 (EKVX NSCLC): 2.73 µM | TGI (EKVX NSCLC): 18.5 µM | GI50 (A498 renal): 2.3 µM | TGI (A498 renal): 17.3 µM | GI50 (HL-60(TB) leukemia): 1.87 µM | TGI (HL-60(TB) leukemia): 5 µM | GI50 (SN12C renal): 2.4 µM | TGI (SN12C renal): 7.26 µM | GI50 (SF-295 CNS): 2.82 µM | TGI (SF-295 CNS): 12.9 µM | GI50 (DU-145 prostate): 2.91 µM | TGI (DU-145 prostate): 15.6 µM | GI50 (SR leukemia): 2.9 µM | TGI (SR leukemia): 10.3 µM | GI50 (K-562 leukemia): 3.89 µM | TGI (K-562 leukemia): 15.5 µM | GI50 (TK-10 renal): 1.57 µM | TGI (TK-10 renal): 5.51 µM | GI50 (NCI/ADR-RES ovarian): 3.1 µM | TGI (NCI/ADR-RES ovarian): 11.5 µM | GI50 (PC-3 prostate): 4.52 µM | TGI (PC-3 prostate): 17.1 µM | GI50 (BT-549 breast): 2.62 µM | TGI (BT-549 breast): 11.3 µM | GI50 (HOP-62 NSCLC): 1.63 µM | TGI (HOP-62 NSCLC): 4.68 µM | GI50 (SF-539 CNS): 1.91 µM | TGI (SF-539 CNS): 4.78 µM | GI50 (NCI-H23 lung): 3.53 µM | TGI (NCI-H23 lung): 14.5 µM | GI50 (UACC-62 melanoma): 3.26 µM | TGI (UACC-62 melanoma): 11.8 µM | GI50 (NCI-H226 lung): 1.87 µM | TGI (NCI-H226 lung): 6.21 µM | GI50 (OVCAR-8 ovarian): 2.96 µM | TGI (OVCAR-8 ovarian): 12.6 µM | GI50 (COLO 205 colon): 5.3 µM | TGI (COLO 205 colon): > 100 µM | GI50 (SNB-75 CNS): 1.45 µM | TGI (SNB-75 CNS): 3.61 µM | GI50 (MDA-MB-468 breast): 1.07 µM | TGI (MDA-MB-468 breast): 2.8 µM | GI50 (MCF7 breast): 1.59 µM | TGI (MCF7 breast): 3.57 µM | GI50 (CCRF-CEM leukemia): 2.34 µM | TGI (CCRF-CEM leukemia): 10.2 µM | GI50 (HOP-92 NSCLC): 2.02 µM | TGI (HOP-92 NSCLC): 5.62 µM | GI50 (NCI-H460 lung): 2.34 µM | TGI (NCI-H460 lung): 5.91 µM | GI50 (MALME-3M melanoma): 1.7 µM | TGI (MALME-3M melanoma): 3.44 µM | GI50 (HCC-2998 colon): 3.59 µM | TGI (HCC-2998 colon): 15.8 µM | GI50 (CAKI-1 renal): 3.52 µM | TGI (CAKI-1 renal): 17.1 µM | GI50 (MDA-MB-435): 3.84 µM | TGI (MDA-MB-435): 19.5 µM | GI50 (SK-MEL-28 melanoma): 3.54 µM | TGI (SK-MEL-28 melanoma): 15.1 µM | GI50 (KM12 colon): 4.27 µM | TGI (KM12 colon): 29 µM | GI50 (U251 CNS): 2.8 µM | TGI (U251 CNS): 11.6 µM | GI50 (SNB-19 CNS): 3.13 µM | TGI (SNB-19 CNS): 14.6 µM | GI50 (A549 NSCLC): 2.75 µM | TGI (A549 NSCLC): 18.2 µM | GI50 (NCI-H522 lung): 2.83 µM | TGI (NCI-H522 lung): 13.4 µM | GI50 (HT29 colon): 4.94 µM | TGI (HT29 colon): > 100 µM | GI50 (HCT-15 colon): 2.85 µM | TGI (HCT-15 colon): 11.7 µM
